{"source": "ChEMBL document CHEMBL5674850", "about": "“ASAP - Solubility” (2024)"}
{"assay": "(§1) Kinetic solubility of compound by measuring concentration at pH 7.4 in saturated PBS buffer by UV LCMS/MS using calibration curves. The assay has been performed by Enamine biological services, Bienta Ltd.The protocol is publicly available: dx.doi.org/10.17504/protocols.io.j8nlk8y41l5r/v1", "format": "physicochemical", "details": "PBS buffer", "units": {"solubility kinetic": "µM"}}
{"smiles": "CCCCNC(=O)[C@H](Nc1ccc2c(c1)CNC2)c1cc(Cl)cc(C2CC2)c1", "solubility kinetic": 379}
{"smiles": "N#Cc1cc2c(cc1NC(=O)c1cc(F)cc3[nH]ncc13)CNC2", "solubility kinetic": 191}
{"smiles": "COc1cc(Cl)cc([C@H](Nc2ccc3c(c2)CNC3)C(=O)NCC(F)F)c1", "solubility kinetic": "≥ 400"}
{"smiles": "O=C(Nc1cc(Cl)cc(C(=O)Nc2n[nH]c3c2CNC3)c1)OCc1ccccc1", "solubility kinetic": 26}
{"smiles": "C=CC[C@H]1NCc2cc(NC(=O)c3cc(F)cc4[nH]ncc34)ccc21", "solubility kinetic": 356}
{"smiles": "c1ccc2sc(C3CCN(Cc4c[nH]c5ccccc45)CC3)nc2c1", "solubility kinetic": 119}
{"smiles": "O=C(Nc1cc(Br)c2c(c1)CNC2)c1cc(F)cc2[nH]ncc12", "solubility kinetic": 4}
{"smiles": "CNC(=O)c1cc(Cl)ccc1NS(=O)(=O)c1ccc(Oc2ccccc2Cl)cc1", "solubility kinetic": 25}
{"smiles": "CNC(=O)[C@H](Nc1cc(CN)cc(C(=O)O)c1)c1cc(Cl)cc(C2CC2)c1", "solubility kinetic": 335}
{"smiles": "O=C1Cc2c(cc(F)cc2C(=O)Nc2ccc3c(c2)CNC3)N1", "solubility kinetic": 368}
{"smiles": "CC(C)CNC(=O)c1cc(Cl)c(F)cc1NS(=O)(=O)c1ccc(Oc2ccccc2Cl)cc1", "solubility kinetic": 4}
{"smiles": "Cc1cc(OCc2ccccc2)ccc1NS(=O)(=O)c1ccc(Cl)cc1C(=O)O", "solubility kinetic": 394}
{"smiles": "O=C(Nc1cc(Cl)cc(C(=O)Nc2cccc(-c3nnn[nH]3)c2)c1)OCc1ccccc1", "solubility kinetic": 65}
{"smiles": "O=C(Nc1cc2c(cc1C1CC1)CNC2)c1cc(F)cc2[nH]ncc12", "solubility kinetic": 189}
{"smiles": "Cc1cc([C@H](Nc2ccc3c(c2)CNC3)C(=O)NCC(F)F)cc(C(F)(F)F)c1", "solubility kinetic": "≥ 400"}
{"smiles": "O=C(NCC(F)F)[C@H](Nc1ccc2c(c1)CNC2)c1cc(Cl)cc2c1CCC2", "solubility kinetic": "≥ 400"}
{"smiles": "CNC(=O)[C@H](Nc1cc(Cl)cc(NC(=O)OCc2ccccc2)c1)c1cccc(-c2nn[nH]n2)c1", "solubility kinetic": 333}
{"smiles": "Cn1c(=O)[nH]c2c(C(=O)Nc3ccc4c(c3)CNC4)cc(Br)cc21", "solubility kinetic": 161}
{"smiles": "OCC#C[C@H](Nc1ccc2c(c1)CNC2)c1cc(Cl)cc2[nH]ncc12", "solubility kinetic": 135}
{"smiles": "O=C(Nc1ccc2c(c1)CNC2)c1cc(F)cc2c1CCC2", "solubility kinetic": 187}
{"smiles": "NCc1cccc(NC(=O)c2cc(Cl)cc(NC(=O)OCc3ccccc3)c2)c1", "solubility kinetic": 89}
{"smiles": "CCc1cc(C(=O)Nc2cccc(CN)c2)sc1-c1ccc(Cl)cc1", "solubility kinetic": 7}
{"smiles": "O=C(NCC(F)F)[C@H](Nc1ccc2c(c1)CNC2)c1cc(Cl)cc2ccoc12", "solubility kinetic": 187}
{"smiles": "O=C(NCC(F)(F)F)c1cc(Cl)c(F)cc1NS(=O)(=O)c1ccc(Oc2ccccc2Cl)cc1", "solubility kinetic": 14}
{"smiles": "CC[C@@H](Cc1nnn[nH]1)c1ccc(NC(=O)c2cc(Cl)cc(NC(=O)OCc3ccccc3)c2)cc1", "solubility kinetic": 60}
{"smiles": "NCc1cccc(NC(=O)CN(C(=O)OCc2ccccc2)c2ccc(OCc3ccccc3)cc2)c1", "solubility kinetic": 56}
{"smiles": "O=C(O)c1cc(Cl)c(F)cc1S(=O)(=O)Nc1ccc(Oc2ccccc2Cl)cc1", "solubility kinetic": 396}
{"smiles": "O=C(Nc1ccc2c(c1)CNC2)c1cc(F)cc2[nH]c(-c3ccc(F)cc3)nc12", "solubility kinetic": 6}
{"smiles": "NCc1cccc(NC(=O)c2cc(OCc3ccccc3)ccc2CNC(=O)OCc2ccccc2)c1", "solubility kinetic": 14}
{"smiles": "Cc1cc(-c2ccc([C@@H](NC(=O)OCc3ccccc3)C(=O)Nc3cccc(CN)c3)cc2)cs1", "solubility kinetic": 8}
{"smiles": "COc1cc(C#N)cc([C@H](Nc2ccc3c(c2)CNC3)C(=O)NCC(F)F)c1", "solubility kinetic": 381}
{"smiles": "COc1cc(-c2cc(NC(=O)c3cc(F)cc4[nH]ncc34)cc3c2CNC3)ccn1", "solubility kinetic": 180}
{"smiles": "C=CC[C@H](Nc1cccc(-c2nn[nH]n2)c1)c1cc(Cl)cc(NC(=O)OCc2ccccc2)c1", "solubility kinetic": 332}
{"smiles": "CC(C)n1cc2c(C(=O)Nc3ccc4c(c3)CNC4)cc(Cl)cc2n1", "solubility kinetic": 181}
{"smiles": "O=C1Cc2cc(C(=O)Nc3ccc4c(c3)CNC4)ccc2N1", "solubility kinetic": 136}
{"smiles": "CNC(=O)c1cc(Cl)c(F)cc1NS(=O)(=O)c1ccc(Oc2ccccc2Cl)cc1", "solubility kinetic": 49}
{"smiles": "N#C[C@H](Nc1cccc(C(=O)O)c1)c1cc(Cl)cc2[nH]ncc12", "solubility kinetic": 112}
{"smiles": "CC(C)c1nc2c(C(=O)Nc3cccc(CN)c3)cccc2[nH]1", "solubility kinetic": 316}
{"smiles": "O=C(Nc1cc2c(cc1Br)CNC2)c1cc(F)cc2[nH]ncc12", "solubility kinetic": 47}
{"smiles": "O=C(O)c1cc(Cl)ccc1NS(=O)(=O)c1ccc(Oc2ccccc2Cl)cc1", "solubility kinetic": 369}
{"smiles": "O=C(Nc1cc2c(c(C3=CCS(=O)(=O)CC3)c1)CNC2)c1cc(F)cc2[nH]ncc12", "solubility kinetic": 141}
{"smiles": "O=C(Nc1ccc2c(c1)CNC2)c1cc(Cl)cc2c1cnn2C1CCC1", "solubility kinetic": 172}
{"smiles": "O=C(O)c1cc(Cl)ccc1S(=O)(=O)NC1CCN(c2nc(C3CC3)cc(C(F)(F)F)n2)CC1", "solubility kinetic": 380}
{"smiles": "CNC(=O)[C@H](Nc1cc(CN)cc(-c2nn[nH]n2)c1)c1cc(Cl)cc(C2CC2)c1", "solubility kinetic": 352}
{"smiles": "O=C(Nc1cc2c(c(C3=CCOCC3)c1)CNC2)c1cc(F)cc2[nH]ncc12", "solubility kinetic": 157}
{"smiles": "O=C(Nc1cc(Cl)cc(C(=O)Nc2cccc(-n3nn[nH]c3=O)c2)c1)OCc1ccccc1", "solubility kinetic": 107}
{"assay": "as §1", "format": "physicochemical", "details": "buffer", "units": {"Solubility (mean)": "µM"}}
{"smiles": "N#Cc1cc2c(cc1NC(=O)c1cc(F)cc3[nH]ncc13)CNC2", "Solubility (mean)": 193}
